# Laboratory results from PubChem BioAssay (NCI).
#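 How tested: cells in 96-well plates exposed to compound for 48 hours at five concentrations. TGI denotes the concentration required for complete inhibition of growth.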
# Legend:
# Assay in all cases: growth of human tumour cells (NCI), 48 h
# A549 NSCLC = test system: A549 NSCLC
# CAKI-1 renal = test system: CAKI-1 renal
# NCI-H460 lung = test system: NCI-H460 lung
# SK-OV-3 ovarian = test system: SK-OV-3 ovarian
# MALME-3M melanoma = test system: MALME-3M melanoma
# SK-MEL-28 melanoma = test system: SK-MEL-28 melanoma
# UO-31 renal = test system: UO-31 renal
# SF-268 CNS = test system: SF-268 CNS
# OVCAR-3 ovarian = test system: OVCAR-3 ovarian
# IGROV1 ovarian = test system: IGROV1 ovarian
# OVCAR-5 ovarian = test system: OVCAR-5 ovarian
# KM12 colon = test system: KM12 colon
# MDA-MB-231 breast = test system: MDA-MB-231 breast
# SF-295 CNS = test system: SF-295 CNS
# NCI-H522 lung = test system: NCI-H522 lung
# SK-MEL-5 melanoma = test system: SK-MEL-5 melanoma
# SN12C renal = test system: SN12C renal
# HCT-15 colon = test system: HCT-15 colon
# COLO 205 colon = test system: COLO 205 colon
# M14 melanoma = test system: M14 melanoma
# DU-145 prostate = test system: DU-145 prostate
# TK-10 renal = test system: TK-10 renal
# SNB-75 CNS = test system: SNB-75 CNS
# ACHN renal = test system: ACHN renal
# SK-MEL-2 melanoma = test system: SK-MEL-2 melanoma
# OVCAR-8 ovarian = test system: OVCAR-8 ovarian
# SW-620 colon = test system: SW-620 colon
# OVCAR-4 ovarian = test system: OVCAR-4 ovarian
# UACC-62 melanoma = test system: UACC-62 melanoma
# A498 renal = test system: A498 renal
# UACC-257 melanoma = test system: UACC-257 melanoma
# HS 578T breast = test system: HS 578T breast
# HOP-92 NSCLC = test system: HOP-92 NSCLC
# HCT-116 colon = test system: HCT-116 colon
# NCI-H23 lung = test system: NCI-H23 lung
# BT-549 breast = test system: BT-549 breast
# SNB-19 CNS = test system: SNB-19 CNS
# 786-0 renal = test system: 786-0 renal
# NCI-H226 lung = test system: NCI-H226 lung
# HOP-62 NSCLC = test system: HOP-62 NSCLC
# K-562 leukemia = test system: K-562 leukemia
# PC-3 prostate = test system: PC-3 prostate
# HT29 colon = test system: HT29 colon
# NCI/ADR-RES ovarian = test system: NCI/ADR-RES ovarian
# U251 CNS = test system: U251 CNS
# MOLT-4 leukemia = test system: MOLT-4 leukemia
# MDA-MB-435 = test system: MDA-MB-435
# RXF 393 renal = test system: RXF 393 renal
# HL-60(TB) leukemia = test system: HL-60(TB) leukemia
# SF-539 CNS = test system: SF-539 CNS
# EKVX NSCLC = test system: EKVX NSCLC
# T-47D breast = test system: T-47D breast
# SR leukemia = test system: SR leukemia
# RPMI-8226 leukemia = test system: RPMI-8226 leukemia
# MCF7 breast = test system: MCF7 breast
structure (smiles),measurement,setting,value
O=C(COc1ccc(Cl)c(Cl)c1)Nc1ccc[n+](Cc2ccc(S(=O)(=O)F)c(Cl)c2)c1,TGI,A549 NSCLC,> 100 µM
same,TGI,CAKI-1 renal,> 100 µM
same,TGI,NCI-H460 lung,> 100 µM
same,TGI,SK-OV-3 ovarian,> 100 µM
same,TGI,MALME-3M melanoma,> 100 µM
same,TGI,SK-MEL-28 melanoma,> 100 µM
same,TGI,UO-31 renal,> 100 µM
same,TGI,SF-268 CNS,> 100 µM
same,TGI,OVCAR-3 ovarian,> 100 µM
same,TGI,IGROV1 ovarian,> 100 µM
same,TGI,OVCAR-5 ovarian,> 100 µM
same,TGI,KM12 colon,> 100 µM
same,TGI,MDA-MB-231 breast,> 100 µM
same,TGI,SF-295 CNS,> 100 µM
same,TGI,NCI-H522 lung,> 100 µM
same,TGI,SK-MEL-5 melanoma,> 100 µM
same,TGI,SN12C renal,> 100 µM
same,TGI,HCT-15 colon,> 100 µM
same,TGI,COLO 205 colon,> 100 µM
same,TGI,M14 melanoma,> 100 µM
same,TGI,DU-145 prostate,> 100 µM
same,TGI,TK-10 renal,> 100 µM
same,TGI,SNB-75 CNS,> 100 µM
same,TGI,ACHN renal,> 100 µM
same,TGI,SK-MEL-2 melanoma,> 100 µM
same,TGI,OVCAR-8 ovarian,> 100 µM
same,TGI,SW-620 colon,> 100 µM
same,TGI,OVCAR-4 ovarian,> 100 µM
same,TGI,UACC-62 melanoma,> 100 µM
same,TGI,A498 renal,> 100 µM
same,TGI,UACC-257 melanoma,> 100 µM
same,TGI,HS 578T breast,> 100 µM
same,TGI,HOP-92 NSCLC,> 100 µM
same,TGI,HCT-116 colon,> 100 µM
same,TGI,NCI-H23 lung,> 100 µM
same,TGI,BT-549 breast,> 100 µM
same,TGI,SNB-19 CNS,> 100 µM
same,TGI,786-0 renal,> 100 µM
same,TGI,NCI-H226 lung,> 100 µM
same,TGI,HOP-62 NSCLC,> 100 µM
same,TGI,K-562 leukemia,> 100 µM
same,TGI,PC-3 prostate,> 100 µM
same,TGI,HT29 colon,> 100 µM
same,TGI,NCI/ADR-RES ovarian,> 100 µM
same,TGI,U251 CNS,> 100 µM
same,TGI,MOLT-4 leukemia,> 100 µM
same,TGI,MDA-MB-435,> 100 µM
same,TGI,RXF 393 renal,> 100 µM
same,TGI,HL-60(TB) leukemia,> 100 µM
same,TGI,SF-539 CNS,> 100 µM
same,TGI,EKVX NSCLC,> 100 µM
same,TGI,T-47D breast,> 100 µM
same,TGI,SR leukemia,> 100 µM
same,TGI,RPMI-8226 leukemia,65.4 µM
same,TGI,MCF7 breast,> 100 µM
